Experimental data published in patent US9006250B2, “4-amino-6-(heterocyclic)picolinates and 6-amino-2-(heterocyclic)pyrimidine-4-carboxylates and their use as herbicides” (Dow AgroSciences, LLC, priority 2013, dated 2015).

Experiments:
[1] = tested on: ABUTH: velvetleaf (Abutilon theophrasti); assay: Post-Emergent Test II herbicidal activity; assay type: in vivo; conditions: post-emergence, 336 h, 14 days, read-out: Visual Growth Reduction (%) 14 Days After Application ABUTH
How it was run: (§1)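 Seedlings raised 7-21 d under greenhouse conditions were treated at the first or second true leaf stage. Compounds, formulated with crop oil concentrate and surfactant, were applied overhead at 187 L/ha across a serial dilution series, with solvent-blank controls. Percent visual injury was scored after 14 d.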

[2] = tested on: AMARE: redroot pigweed (Amaranthus retroflexus); assay: Post-Emergent Test II herbicidal activity; assay type: in vivo; conditions: post-emergence, 336 h, 14 days, read-out: Visual Growth Reduction (%) 14 Days After Application AMARE
How it was run: as §1

[3] = tested on: BRSNN: oilseed rape, canola (Brassica napus); assay: Post-Emergent Test II herbicidal activity; assay type: in vivo; conditions: post-emergence, 336 h, 14 days, read-out: Visual Growth Reduction (%) 14 Days After Application BRSNN
How it was run: as §1

[4] = tested on: CHEAL: lambsquarters (Chenopodium album); assay: Post-Emergent Test II herbicidal activity; assay type: in vivo; conditions: post-emergence, 336 h, 14 days, read-out: Visual Growth Reduction (%) 14 Days After Application CHEAL
How it was run: as §1

[5] = tested on: CYPES: yellow nutsedge (Cyperus esculentus); assay: Post-Emergent Test II herbicidal activity; assay type: in vivo; conditions: post-emergence, 336 h, 14 days, read-out: Visual Growth Reduction (%) 14 Days After Application CYPES
How it was run: as §1

[6] = tested on: ECHCG: barnyardgrass (Echinochloa crus-galli); assay: Post-Emergent Test II herbicidal activity; assay type: in vivo; conditions: post-emergence, 336 h, 14 days, read-out: Visual Growth Reduction (%) 14 Days After Application ECHCG
How it was run: as §1

[7] = tested on: EPHHL: wild poinsettia (Euphorbia heterophylla); assay: Post-Emergent Test II herbicidal activity; assay type: in vivo; conditions: post-emergence, 336 h, 14 days, read-out: Visual Growth Reduction (%) 14 Days After Application EPHHL
How it was run: as §1

[8] = tested on: HELAN: sunflower (Helianthus annuus); assay: Post-Emergent Test II herbicidal activity; assay type: in vivo; conditions: post-emergence, 336 h, 14 days, read-out: Visual Growth Reduction (%) 14 Days After Application HELAN
How it was run: as §1

[9] = tested on: ORYSA: rice (Oryza sativa); assay: Post-Emergent Test II herbicidal activity; assay type: in vivo; conditions: post-emergence, 336 h, 14 days, read-out: Visual Growth Reduction (%) 14 Days After Application ORYSA
How it was run: as §1

[10] = tested on: SETFA: giant foxtail (Setaria faberi); assay: Post-Emergent Test II herbicidal activity; assay type: in vivo; conditions: post-emergence, 336 h, 14 days, read-out: Visual Growth Reduction (%) 14 Days After Application SETFA
How it was run: as §1

[11] = tested on: TRZAS: wheat, spring (Triticum aestivum); assay: Post-Emergent Test II herbicidal activity; assay type: in vivo; conditions: post-emergence, 336 h, 14 days, read-out: Visual Growth Reduction (%) 14 Days After Application TRZAS
How it was run: as §1

[12] = tested on: ZEAMX: maize, corn (Zea mays); assay: Post-Emergent Test II herbicidal activity; assay type: in vivo; conditions: post-emergence, 336 h, 14 days, read-out: Visual Growth Reduction (%) 14 Days After Application ZEAMX
How it was run: as §1

Structure (SMILES): COC(=O)c1nc(-c2cc3nonc3cc2F)cc(N)c1Cl [Compound 4, Methyl 4-amino-3-chloro-6-(6-fluorobenzo[c][1,2,5]oxadiazol-5-yl)picolinate]
- pest or weed control at 35 g/ha ([1]; 35 g ai/ha): 85 to 94%
- pest or weed control at 70 g/ha ([1]; 70 g ai/ha): 95 to 100%
- pest or weed control at 140 g/ha ([1]; 140 g ai/ha): 95 to 100%
- pest or weed control at 35 g/ha ([2]; 35 g ai/ha): 95 to 100%
- pest or weed control at 70 g/ha ([2]; 70 g ai/ha): 95 to 100%
- pest or weed control at 140 g/ha ([2]; 140 g ai/ha): 95 to 100%
- pest or weed control at 35 g/ha ([3]; 35 g ai/ha): 85 to 94%
- pest or weed control at 70 g/ha ([3]; 70 g ai/ha): 95 to 100%
- pest or weed control at 140 g/ha ([3]; 140 g ai/ha): 95 to 100%
- pest or weed control at 35 g/ha ([4]; 35 g ai/ha): 85 to 94%
- pest or weed control at 70 g/ha ([4]; 70 g ai/ha): 95 to 100%
- pest or weed control at 140 g/ha ([4]; 140 g ai/ha): 95 to 100%
- pest or weed control at 35 g/ha ([5]; 35 g ai/ha): 95 to 100%
- pest or weed control at 70 g/ha ([5]; 70 g ai/ha): 95 to 100%
- pest or weed control at 140 g/ha ([5]; 140 g ai/ha): 95 to 100%
- pest or weed control at 35 g/ha ([6]; 35 g ai/ha): 85 to 94%
- pest or weed control at 70 g/ha ([6]; 70 g ai/ha): 95 to 100%
- pest or weed control at 140 g/ha ([6]; 140 g ai/ha): 85 to 94%
- pest or weed control at 35 g/ha ([7]; 35 g ai/ha): 95 to 100%
- pest or weed control at 70 g/ha ([7]; 70 g ai/ha): 95 to 100%
- pest or weed control at 140 g/ha ([7]; 140 g ai/ha): 95 to 100%
- pest or weed control at 35 g/ha ([8]; 35 g ai/ha): 85 to 94%
- pest or weed control at 70 g/ha ([8]; 70 g ai/ha): 85 to 94%
- pest or weed control at 140 g/ha ([8]; 140 g ai/ha): 85 to 94%
- pest or weed control at 35 g/ha ([9]; 35 g ai/ha): 0 to 29%
- pest or weed control at 70 g/ha ([9]; 70 g ai/ha): 0 to 29%
- pest or weed control at 140 g/ha ([9]; 140 g ai/ha): 30 to 44%
- pest or weed control at 35 g/ha ([10]; 35 g ai/ha): 60 to 74%
- pest or weed control at 70 g/ha ([10]; 70 g ai/ha): 60 to 74%
- pest or weed control at 140 g/ha ([10]; 140 g ai/ha): 60 to 74%
- pest or weed control at 35 g/ha ([11]; 35 g ai/ha): 60 to 74%
- pest or weed control at 70 g/ha ([11]; 70 g ai/ha): 75 to 84%
- pest or weed control at 140 g/ha ([11]; 140 g ai/ha): 75 to 84%
- pest or weed control at 35 g/ha ([12]; 35 g ai/ha): 85 to 94%
- pest or weed control at 70 g/ha ([12]; 70 g ai/ha): 85 to 94%
- pest or weed control at 140 g/ha ([12]; 140 g ai/ha): 85 to 94%
- melting point: 199 to 201 °C
